Laboratory results reported in PubChem BioAssay (NCI).
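Five compound concentrations were applied to cells in 96-well plates for 48 hours; endpoints were derived by simple linear interpolation of the resulting dose-response curve. At the TGI there is no net growth.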

How the values were obtained:
Test in all cases: NCI-60 cell line screen, 48 h
OVCAR-8 ovarian = test system: OVCAR-8 ovarian
T-47D breast = test system: T-47D breast
HOP-92 NSCLC = test system: HOP-92 NSCLC
HOP-62 NSCLC = test system: HOP-62 NSCLC
MDA-MB-231 breast = test system: MDA-MB-231 breast
SF-295 CNS = test system: SF-295 CNS
LOX IMVI melanoma = test system: LOX IMVI melanoma
M14 melanoma = test system: M14 melanoma
HT29 colon = test system: HT29 colon
SF-268 CNS = test system: SF-268 CNS
HCT-116 colon = test system: HCT-116 colon
KM12 colon = test system: KM12 colon
SNB-75 CNS = test system: SNB-75 CNS
NCI/ADR-RES ovarian = test system: NCI/ADR-RES ovarian
SN12C renal = test system: SN12C renal
SW-620 colon = test system: SW-620 colon
CAKI-1 renal = test system: CAKI-1 renal
SK-MEL-2 melanoma = test system: SK-MEL-2 melanoma
HCT-15 colon = test system: HCT-15 colon
DU-145 prostate = test system: DU-145 prostate
UO-31 renal = test system: UO-31 renal
OVCAR-5 ovarian = test system: OVCAR-5 ovarian
K-562 leukemia = test system: K-562 leukemia
UACC-62 melanoma = test system: UACC-62 melanoma
RXF 393 renal = test system: RXF 393 renal
SNB-19 CNS = test system: SNB-19 CNS
BT-549 breast = test system: BT-549 breast
SK-MEL-5 melanoma = test system: SK-MEL-5 melanoma
OVCAR-3 ovarian = test system: OVCAR-3 ovarian
IGROV1 ovarian = test system: IGROV1 ovarian
OVCAR-4 ovarian = test system: OVCAR-4 ovarian
MOLT-4 leukemia = test system: MOLT-4 leukemia
SK-OV-3 ovarian = test system: SK-OV-3 ovarian
SR leukemia = test system: SR leukemia
U251 CNS = test system: U251 CNS
A498 renal = test system: A498 renal
NCI-H522 lung = test system: NCI-H522 lung
SK-MEL-28 melanoma = test system: SK-MEL-28 melanoma
ACHN renal = test system: ACHN renal
MDA-N = test system: MDA-N
TK-10 renal = test system: TK-10 renal
NCI-H23 lung = test system: NCI-H23 lung
HL-60(TB) leukemia = test system: HL-60(TB) leukemia
PC-3 prostate = test system: PC-3 prostate
UACC-257 melanoma = test system: UACC-257 melanoma
MDA-MB-435 = test system: MDA-MB-435
COLO 205 colon = test system: COLO 205 colon
MALME-3M melanoma = test system: MALME-3M melanoma
HS 578T breast = test system: HS 578T breast
CCRF-CEM leukemia = test system: CCRF-CEM leukemia
RPMI-8226 leukemia = test system: RPMI-8226 leukemia
A549 NSCLC = test system: A549 NSCLC
EKVX NSCLC = test system: EKVX NSCLC
786-0 renal = test system: 786-0 renal
NCI-H226 lung = test system: NCI-H226 lung
MCF7 breast = test system: MCF7 breast
NCI-H460 lung = test system: NCI-H460 lung
HCC-2998 colon = test system: HCC-2998 colon

Compound O=S(=O)(O)c1ccc2c(N=Nc3cccc4ccccc34)c(O)ccc2c1 has a TGI (OVCAR-8 ovarian) greater than 100 µM, a TGI (T-47D breast) greater than 100 µM and a TGI (HOP-92 NSCLC) greater than 100 µM. For the same compound, the TGI (HOP-62 NSCLC) was greater than 100 µM, the TGI (MDA-MB-231 breast) was greater than 100 µM and the TGI (SF-295 CNS) was greater than 100 µM. For the same compound, the TGI (LOX IMVI melanoma) was greater than 100 µM, the TGI (M14 melanoma) was greater than 100 µM and the TGI (HT29 colon) was greater than 100 µM. For the same compound, the TGI (SF-268 CNS) was greater than 100 µM, the TGI (HCT-116 colon) was greater than 100 µM and the TGI (KM12 colon) was greater than 100 µM. It also gave a TGI (SNB-75 CNS) greater than 100 µM, a TGI (NCI/ADR-RES ovarian) greater than 100 µM and a TGI (SN12C renal) greater than 100 µM. For the same compound, the TGI (SW-620 colon) was greater than 100 µM, the TGI (CAKI-1 renal) was greater than 100 µM and the TGI (SK-MEL-2 melanoma) was greater than 100 µM. For the same compound, the TGI (HCT-15 colon) was greater than 100 µM, the TGI (DU-145 prostate) was greater than 100 µM and the TGI (UO-31 renal) was greater than 100 µM. For the same compound, the TGI (OVCAR-5 ovarian) was greater than 100 µM, the TGI (K-562 leukemia) was greater than 100 µM and the TGI (UACC-62 melanoma) was greater than 100 µM. The TGI (RXF 393 renal) was greater than 100 µM, the TGI (SNB-19 CNS) was greater than 100 µM and the TGI (BT-549 breast) was greater than 100 µM. For the same compound, the TGI (SK-MEL-5 melanoma) was greater than 100 µM, the TGI (OVCAR-3 ovarian) was greater than 100 µM and the TGI (IGROV1 ovarian) was greater than 100 µM. It also gave a TGI (OVCAR-4 ovarian) greater than 100 µM, a TGI (MOLT-4 leukemia) greater than 100 µM and a TGI (SK-OV-3 ovarian) greater than 100 µM. For the same compound, the TGI (SR leukemia) was greater than 100 µM, the TGI (U251 CNS) was greater than 100 µM and the TGI (A498 renal) was greater than 100 µM. It also gave a TGI (NCI-H522 lung) greater than 100 µM, a TGI (SK-MEL-28 melanoma) greater than 100 µM and a TGI (ACHN renal) greater than 100 µM. The TGI (MDA-N) was greater than 100 µM, the TGI (TK-10 renal) was greater than 100 µM and the TGI (NCI-H23 lung) was greater than 100 µM. The TGI (HL-60(TB) leukemia) was greater than 100 µM, the TGI (PC-3 prostate) was greater than 100 µM and the TGI (UACC-257 melanoma) was greater than 100 µM. It also gave a TGI (MDA-MB-435) greater than 100 µM, a TGI (COLO 205 colon) greater than 100 µM and a TGI (MALME-3M melanoma) greater than 100 µM. For the same compound, the TGI (HS 578T breast) was greater than 100 µM, the TGI (CCRF-CEM leukemia) was greater than 100 µM and the TGI (RPMI-8226 leukemia) was greater than 100 µM. It also gave a TGI (A549 NSCLC) greater than 100 µM, a TGI (EKVX NSCLC) greater than 100 µM and a TGI (786-0 renal) greater than 100 µM. It also gave a TGI (NCI-H226 lung) greater than 100 µM.

Work on COc1ccc2[nH]c3cc4c(=O)c5cc(OC)ccc5[nH]c4cc3c(=O)c2c1 yielded a TGI (OVCAR-8 ovarian) greater than 100 µM, a TGI (T-47D breast) greater than 100 µM and a TGI (HOP-92 NSCLC) greater than 100 µM. For the same compound, the TGI (HOP-62 NSCLC) was greater than 100 µM, the TGI (MDA-MB-231 breast) was greater than 100 µM and the TGI (SF-295 CNS) was greater than 100 µM. For the same compound, the TGI (M14 melanoma) was greater than 100 µM, the TGI (HT29 colon) was greater than 100 µM and the TGI (SF-268 CNS) was greater than 100 µM. The TGI (HCT-116 colon) was greater than 100 µM, the TGI (KM12 colon) was greater than 100 µM and the TGI (SNB-75 CNS) was 67.5 µM. The TGI (NCI/ADR-RES ovarian) was greater than 100 µM, the TGI (SN12C renal) was greater than 100 µM and the TGI (SW-620 colon) was greater than 100 µM. The TGI (CAKI-1 renal) was greater than 100 µM, the TGI (SK-MEL-2 melanoma) was greater than 100 µM and the TGI (HCT-15 colon) was greater than 100 µM. It also gave a TGI (DU-145 prostate) greater than 100 µM, a TGI (UO-31 renal) greater than 100 µM and a TGI (OVCAR-5 ovarian) greater than 100 µM. It also gave a TGI (K-562 leukemia) greater than 100 µM, a TGI (UACC-62 melanoma) greater than 100 µM and a TGI (RXF 393 renal) greater than 100 µM. It also gave a TGI (SNB-19 CNS) greater than 100 µM, a TGI (BT-549 breast) greater than 100 µM and a TGI (SK-MEL-5 melanoma) greater than 100 µM. It also gave a TGI (OVCAR-3 ovarian) greater than 100 µM, a TGI (MCF7 breast) greater than 100 µM and a TGI (IGROV1 ovarian) greater than 100 µM. The TGI (OVCAR-4 ovarian) was greater than 100 µM, the TGI (MOLT-4 leukemia) was greater than 100 µM and the TGI (NCI-H460 lung) was greater than 100 µM. It also gave a TGI (SK-OV-3 ovarian) greater than 100 µM, a TGI (SR leukemia) greater than 100 µM and a TGI (U251 CNS) greater than 100 µM. For the same compound, the TGI (A498 renal) was greater than 100 µM, the TGI (NCI-H522 lung) was greater than 100 µM and the TGI (SK-MEL-28 melanoma) was greater than 100 µM. For the same compound, the TGI (ACHN renal) was greater than 100 µM, the TGI (MDA-N) was greater than 100 µM and the TGI (TK-10 renal) was greater than 100 µM. It also gave a TGI (NCI-H23 lung) greater than 100 µM, a TGI (HL-60(TB) leukemia) of 36.2 µM and a TGI (PC-3 prostate) greater than 100 µM. The TGI (UACC-257 melanoma) was greater than 100 µM, the TGI (MDA-MB-435) was greater than 100 µM and the TGI (HCC-2998 colon) was greater than 100 µM. For the same compound, the TGI (COLO 205 colon) was greater than 100 µM, the TGI (MALME-3M melanoma) was greater than 100 µM and the TGI (HS 578T breast) was greater than 100 µM. For the same compound, the TGI (RPMI-8226 leukemia) was greater than 100 µM, the TGI (A549 NSCLC) was greater than 100 µM and the TGI (EKVX NSCLC) was greater than 100 µM. For the same compound, the TGI (786-0 renal) was greater than 100 µM and the TGI (NCI-H226 lung) was greater than 100 µM.
